Consider eight compounds from article PMC10385824, “Antiproliferative and Tubulin-Destabilising Effects of 3-(Prop-1-en-2-yl)azetidin-2-Ones and Related Compounds in MCF-7 and MDA-MB-231 Breast Cancer Cells” (Pharmaceuticals, 2023).

SMILES strings stand for the structures. Where two headings read alike, the source gives them in different places.

One data set deals with MCF-7 cells. Description: Lactate dehydrogenase (LDH) cytotoxicity assay. The format is cell-based, human. The conditions noted are these: 10 μM, 72 h, LDH release. As to the method:
The cytotoxic effects of the compounds were determined using the CytoTox 96 non-radioactive cytotoxicity assay (Promega) as previously reported. The MCF-7 cells were seeded in 96-well plates and incubated for 24 h. Cells were treated with test compounds 16, 26 and 30 at 10 μM concentration as described in the cell viability assay above. At 72 hr, 20 μL of ‘lysis solution (10X)’ was added to the control wells to ensure 100% death. The cells were incubated for a further 1 hr. Supernatant (50 μL) was removed from each well and transferred to a 96-well plate. Cytotox 96R Reagent (50 μL) was added to each well, and the plate was retained in darkness at 20 °C for 30 min. 50 μL of ‘stop solution’ was then added to each well, and the absorbance was determined at 490 nm using a Dynatech MR5000 plate reader. The cell death (%) at 10 μM was determined.
(In general: Release of lactate dehydrogenase indicates damage to the cell membrane.)

For another data set, the system named is TK-10. Kind of data set: NCI-60 SRB screen, renal cancer. The format is cell-based, human. Particulars: for GI50: Homo sapiens.
Data set [1] relates to MCF-7 human breast cancer cells. Description: cells.
For data set [2], the system named is microtubule network in MCF-7 cells. Kind of data set: Immunofluorescence confocal microscopy. The class given is cell-based, human. Particulars: 16 h. On the procedure:
CA-4 and β-lactam 9q depolymerise the microtubule network in MCF-7 cells. […] After 16 h, the cells were fixed in 4% paraformaldehyde and stained with mouse monoclonal anti-α-tubulin−FITC antibody (clone DM1A) (green), Alexa Fluor 488 dye, and counterstained with DAPI (blue). The confocal images were obtained by Leica SP8 confocal microscopy with Leica application suite X software. Representative confocal micrograph images of three separate experiments are shown above [scale bar: […]].
The effects of β-lactam 9q on MCF-7 cytoskeleton were determined using confocal microscopy as previously described. MCF-7 cells were seeded at 1 × 10^5 cells/mL in glass slides with eight chambers (BD Biosciences, San Jose, CA, USA). […] Following treatment, cells were gently washed in PBS, fixed for 20 min with 4% paraformaldehyde in PBS and permeabilised in 0.5% Triton X-100. The cells were then washed with PBS-T (PBS containing 0.1% Tween), blocked in 5% bovine serum albumin diluted in PBS-T and incubated with mouse monoclonal anti-α-tubulin-FITC antibody (clone DM1A) (Sigma, Milwaulkee, WI, USA) (1:100) for 2 h at 20 °C. The cells were washed again with PBS-T and incubated with Alexa Fluor 488 dye (1:450) for 1 h at 20 °C. Following washes in PBST, the cells were mounted in Ultra Cruz Mounting Media (Santa Cruz Biotechnology, Santa Cruz, CA, USA), which contained 4,6-diamino-2-phenolindol dihydrochloride (DAPI). The immunofluorescence cell images were captured by Leica SP8 confocal microscopy and analysed with Leica application suite X software. Microscopy experiments were performed on three independent occasions, and the images for these experiments were obtained on the same day using identical conditions.

Data set [3] can be described thus: HPLC stability study in phosphate buffers. Particulars: for half-life at 14.6 µg/mL / remaining at 24 h, 14.6 µg/mL / remaining at 264 h, 14.6 µg/mL: phosphate buffer; for half-life at 14.6 µg/mL: read-out: half-life (t½) (converted); for remaining at 24 h, 14.6 µg/mL: study over 24 h; for remaining at 264 h, 14.6 µg/mL: study over 264 h. The class given is physicochemical.

Data set [4] can be described thus: HPLC stability study in plasma. The class given is in vitro ADME, human. The conditions noted are these: buffered plasma (plasma:buffer 1:9); for half-life at 41.3 µg/mL: human blood plasma, read-out: half-life (t½); for remaining at 24 h, 41.3 µg/mL: study over 24 h.
The test system of another data set is SF-268. Description: NCI-60 SRB screen, CNS cancer. The class given is cell-based, human. Particulars: 48 h; for GI50: Homo sapiens, five dose 0.01–100 µM. As to the method: The initial NCI 60 cell line screen used the sulforhodamine B (SRB) protein assay, at one dose concentration (10 μM), and subsequently, a five-dose screening in the concentration range 0.01–100 μM was carried out.

The next data set relates to UACC-257. Description: NCI-60 SRB screen, melanoma. The format is cell-based, human. The conditions noted are these: for GI50: Homo sapiens.
In data set [5] the test system is colchicine-binding site of β-tubulin (Cys239, Cys354) in MCF-7 cells. Description: Colchicine-binding site assay (EBI crosslinking, Western blot). The conditions noted are these: 10 μM, 2 h, then EBI. In general terms: A western blot detects proteins with antibodies after separation by electrophoresis.
Method: MCF-7 cells were seeded at density of 5 × 10^4 cells/well in 6-well plates and incubated overnight. […] Samples were separated by SDS-PAGE, transferred to polyvinylidene difluoride membranes and examined with β-tubulin antibodies (Sigma-Aldrich, Milwaulkee, WI, USA) [99].
Cells were harvested, lysed and then analysed using sedimentation followed by Western blotting to identify β-tubulin and β-tubulin-EBI adduct.
The mark [6] stands for this setting: TK-10, five dose 0.01–100 µM, 48 h, read-out: GI50.
[7] abbreviates: MCF7, 72 h, read-out: cell viability.
Where [8] appears, read: UACC-257, five dose 0.01–100 µM, 48 h, read-out: GI50.
[9] abbreviates: MCF7, read-out: Antiproliferative Activity IC50.

What is called GI50 is the concentration at which growth is held to half of that of the control. As to `C=C(C)C1C(=O)N(c2cc(OC)c(OC)c(OC)c2)C1c1ccc(OC)cc1` (stereo not drawn) [9h, 4-(4-Methoxyphenyl)-1-(3,4,5-trimethoxyphenyl)-3-(prop-1-en-2-yl)azetidin-2-one], in the data set with MCF-7 cells, the cell death amounted to 30%. Besides, the GI50 with TK-10 (setting [6]) worked out at 96.5 nM. This compound yielded an IC50 in data set [1] (MCF7, MCF-7) of 33 nM.
In general, half-life refers to how long it takes for the measured level to halve. What is called fraction remaining is what is left of the initial amount, in per cent. Low readings indicate a greater loss, high ones greater stability. Usually viability stands for a per cent measure of how many cells are alive, often set against a control. In the case of `C=C(C)C1C(=O)N(c2cc(OC)c(OC)c(OC)c2)C1c1ccc(OC)c(O)c1` (stereo not drawn) [9q, 4-(3-Hydroxy-4-methoxyphenyl)-1-(3,4,5-trimethoxyphenyl)-3-(prop-1-en-2-yl)azetidin-2-one], in the data set with MCF-7 cells, the cell death is 32%. The “effect on microtubule network” value in data set [2] is “microtubule formation was inhibited and resulted in depolymerised microtubules”. The half-life at 14.6 µg/mL was 13 h in data set [3] (pH 4), 13 h in data set [3] (pH 7.4) and 6 h in [3] (pH 9). Moreover, the share remaining at 24 h, 14.6 µg/mL was found to be 33% in [3] (pH 4.0), 35% in [3] (pH 7.4) and 34% in data set [3] (pH 9.0). Also, the half-life at 41.3 µg/mL in data set [4] is > 24 h. The compound further gave a fraction remaining at 24 h, 41.3 µg/mL in data set [4] (human, Plasma) of 80%. Moreover, the values for the GI50 in the data set with SF-268 and in the data set with TK-10 (setting [6]) were 22.9 nM and 53.4 nM, respectively. The “% Growth” value in the data set with SF-268 (one dose 10 µM) was 19.27%; with UACC-257 (UACC-257, one dose 10 µM, 48 h) it was 74.47%; in the data set on TK-10 (TK-10, one dose 10 µM, 48 h) it was 46.63%. The IC50 in data set [1] (MCF7) came out at 10 nM; in data set [1] (MCF7, 72 h), 12 nM. Further, the viability at 0.1 µM in [1] (setting [7]) is 22%. Also, the viability at 1 µM in data set [1] (setting [7]) amounted to 21%. The viability at 10 µM in data set [1] (setting [7]) came to 11%. Further, in data set [5], the “formation of β-tubulin-EBI adduct” value is given as “formation of the EBI adduct was prevented”.
On to `C=C(C)C1C(=O)N(c2cc(OC)c(OC)c(OC)c2)C1c1ccc(OC)c(N)c1` (stereo not drawn) [9s, 4-(3-Amino-4-methoxyphenyl)-1-(3,4,5-trimethoxyphenyl)-3-(prop-1-en-2-yl)azetidin-2-one], for which the GI50 in the data set on UACC-257 (setting [8]) was > 100000 nM; in the data set with TK-10 (setting [6]) it was 64.9 nM. Besides, the IC50 in data set [1] (MCF7, MCF-7) was 33 nM.
Take `C=CCC1C(=O)N(c2cc(OC)c(OC)c(OC)c2)C1c1ccc(OC)c(O)c1` (stereo not drawn) [10p, 4-(3-Hydroxy-4-methoxyphenyl)-1-(3,4,5-trimethoxyphenyl)-3-allylazetidin-2-one]: the compound remaining result in data set [3] (all pH values (4, 7.4, 9), after 11 days) is “over 95%”. Further, the values for the share remaining at 264 h, 14.6 µg/mL in data set [3] (pH 4.0), in [3] (pH 7.4) and in data set [3] (pH 9.0) were 98%, 99% and 96%, respectively. The half-life at 14.6 µg/mL in [3] (pH range studied, medium not specified) was > 24 h. For the same compound, the fraction remaining at 264 h, 41.3 µg/mL in [4] (human, Plasma, study over 264 h) came out at 97%. The GI50 in the data set with TK-10 (setting [6]) came to 80.2 nM. Moreover, the IC50 in [1] (MCF7, read-out: Antiproliferative Activity IC50, MCF-7, eight concentrations 0.001–50 μM, mean ± SEM, Table 3) came to 31 ± 2 nM.
With `C=CC=CC1C(=O)N(c2cc(OC)c(OC)c(OC)c2)C1c1ccc(OC)cc1` (stereo not drawn) [11h, 3-(Buta-1,3-dienyl)-4-(4-methoxyphenyl)-1-(3,4,5-trimethoxyphenyl)azetidin-2-one], the GI50 in the data set on UACC-257 (UACC-257, 48 h) was 11200 nM; in the data set with TK-10 (TK-10, 48 h), 61.7 nM. In addition, the IC50 in [1] (setting [9]) is 33 ± 5 nM.
In turn, `C=C/C=C/C1C(=O)N(c2cc(OC)c(OC)c(OC)c2)C1c1ccc(OC)c(N)c1` (stereo not drawn) [11r, (E)-4-(3-Amino-4-methoxyphenyl)-3-(buta-1,3-dien-1-yl)-1-(3,4,5-trimethoxyphenyl)azetidin-2-one] yielded a GI50 in the data set on TK-10 (TK-10, 48 h) of 74.8 nM. In addition, the IC50 in data set [1] (setting [9]) worked out at 36 ± 5 nM.
Regarding `C=C(C)C1C(=O)N(c2cc(OC)c(OC)c(OC)c2)C1c1ccc(OC)c(OP(=O)(O)O)c1` (stereo not drawn) [15a, 2-Methoxy-5-(4-oxo-3-(prop-1-en-2-yl)-1-(3,4,5-trimethoxyphenyl)azetidin-2-yl)-phenyl dihydrogen phosphate], the half-life at 14.6 µg/mL in data set [3] (pH 4) and in data set [3] (pH 7.4) was > 24 h in each case. Further, the share remaining at 24 h, 14.6 µg/mL in data set [3] (pH 4.0) was determined as 96%; in [3] (pH 7.4), 98%. Also, in data set [4], the half-life at 41.3 µg/mL is > 24 h. The amount remaining at 24 h, 41.3 µg/mL in data set [4] (human, Plasma) was found to be 97%. The GI50 is 98.1 nM with SF-268, > 100000 nM in the data set on UACC-257 (setting [8]) and 43100 nM with TK-10 (setting [6]). This compound returned an IC50 in data set [1] (MCF7) of 19 nM.
Consider `COc1ccc(C2C(C(C)C)C(=O)N2c2cc(OC)c(OC)c(OC)c2)cc1OP(=O)(O)O` (stereo not drawn) [15b, 5-(3-Isopropyl-1-(3,4,5-trimethoxyphenyl)-4-oxoazetidin-2-yl)-2-methoxyphenyl dihydrogen phosphate], for which the GI50 is 447 nM in the data set on SF-268, > 100000 nM in the data set on UACC-257 (setting [8]) and 695 nM in the data set on TK-10 (setting [6]). Also, in data set [1] (MCF7, 72 h, read-out: Antiproliferative Activity IC50), the IC50 is 145000 ± 7760 nM.
